Legend:
Format in all cases: biochemical, Musa acuminata x Musa balbisiana
[1] = tested on: T1, 'Prata' banana peel polyphenol oxidase (PPO); test: spectrophotometric, […] nm, proline-catechol adduct formation, non-linear Michaelis-Menten fit; conditions: crude extract; McIlvaine buffer pH 6.5, 30 °C; constant 50 mM L-proline as coupling agent; O2 co-substrate; read-out: apparent KM
T1 construct: native crude extract of freeze-dried peel (McIlvaine buffer pH 6.5, PVP, Triton X-100); not purified; o-diphenol oxidase activity

[2] = tested on: T1, 'Prata' banana peel polyphenol oxidase (PPO); test: spectrophotometric initial rate, […] nm, non-linear Michaelis-Menten fit; conditions: crude extract; McIlvaine buffer pH 6.5, 30 °C; O2 co-substrate
[3] = tested on: T1, 'Prata' banana peel polyphenol oxidase (PPO); test: as above; conditions: crude extract; McIlvaine buffer pH 6.5, 30 °C; O2 co-substrate; remark: listed apart in the source

`Cc1ccc(O)c(O)c1` [4-methylcatechol] gave a Km [1] of 4.01 mM.

Compound `NCCc1ccc(O)c(O)c1` [Dopamine] has a Km [2] of 0.94 ± 0.07 mM.

Compound `O=C(/C=C/c1ccc(O)c(O)c1)O[C@@H]1C[C@](O)(C(=O)O)C[C@@H](O)[C@H]1O` [Chlorogenic acid] has a Km [3] of 7.54 ± 0.51 mM.

From PMC8150690, “Effects of Extraction Conditions on Banana Peel Polyphenol Oxidase Activity and Insights into Inactivation Kinetics Using Thermal and Cold Plasma Treatment” (Foods, 2021)
